# From patent publication US20210008541A1, “INSTRUMENT AND METHODS FOR AUTOMATED SAMPLE PREPARATION FOR MICROORGANISM IDENTIFICATION AND DIFFERENTIATION” (Accelerate Diagnostics, Inc., priority 2019, published 2021)
# Columns and labels:
# PROV_ATCC_6380 = test: Disk diffusion inhibition of RAM ingredients on MHA plates; type: cell-based, Proteus vulgaris; settings: 100 μL dispensed on MHA plate, lawned with PROV_ATCC_6380
# Description: (§1) Thus, each of the ingredients was checked for potential inhibition. The first portion of this study was meant to determine the source of inhibition and to formulate different variations of a respiratory artificial matrix (RAM) to use as a pellet former. To complete this objective, 100 μL of each of the ingredients was dispensed onto the center of four different Mueller Hinton Agar (MHA) plates. After letting the plates dry for ˜2 hours they were lawned with the following four bacteria: ECOL_ATCC_25922, SAUR_ATCC_29213, PROV_ATCC_6380 and PRMI_IHMA_827374. The following day the plates were measured for zones of inhibition. Following this, the pellet former recipe was optimized to exclude non-sterile components. […] Many fresh positive specimens of varying viscosities were then tested with an assay that incorporated this pellet former by adding 500 μL to the capsule with 1500 μL of BAL or mini-BAL specimen.
# PRMI_IHMA_827374 = test: as above; type: cell-based, Proteus mirabilis; settings: 100 μL dispensed on MHA plate, lawned with PRMI_IHMA_827374
# Description: as §1
# ECOL_ATCC_25922 = test: as above; type: cell-based, Escherichia coli; settings: 100 μL dispensed on MHA plate, lawned with ECOL_ATCC_25922
# Description: as §1
# SAUR_ATCC_29213 = test: as above; type: cell-based, Staphylococcus aureus; settings: 100 μL dispensed on MHA plate, lawned with SAUR_ATCC_29213
# Description: as §1
# [1] = system: ECOL_ATCC_25922, SAUR_ATCC_29213, PROV_ATCC_6380 and PRMI_IHMA_827374; test: Disk diffusion inhibition of RAM ingredients, all four lawned bacteria; type: cell-based
# Description: Thus, each of the ingredients was checked for potential inhibition. […] To complete this objective, 100 μL of each of the ingredients was dispensed onto the center of four different Mueller Hinton Agar (MHA) plates. After letting the plates dry for ˜2 hours they were lawned with the following four bacteria: ECOL_ATCC_25922, SAUR_ATCC_29213, PROV_ATCC_6380 and PRMI_IHMA_827374. The following day the plates were measured for zones of inhibition.
smiles,measurement,setting,value
"O=C(O)CN(CCN(CC(=O)O)CC(=O)O)CCN(CC(=O)O)CC(=O)O [DTPA alone, DTPA]",Disk Diffusion Inhibition (zone of inhibition),PROV_ATCC_6380,26 mm
same,Disk Diffusion Inhibition (zone of inhibition),PRMI_IHMA_827374,30 mm
same,Disk Diffusion Inhibition (zone of inhibition),ECOL_ATCC_25922,7 mm
same,Disk Diffusion Inhibition (zone of inhibition),SAUR_ATCC_29213,19 mm
same,Inhibition by disk diffusion method,[1],inhibited each of the organisms tested
